Reference: PMC8780078, “Long‐acting and extended‐release implant and nanoformulations with a synergistic antiretroviral two‐drug combination controls HIV‐1 infection in a humanized mouse model” (Bioengineering & Translational Medicine, 2021)

Legend:
HIV‐1 [1] = assay: Antiviral potency in cellular assays / HIV cell culture; format: cell-based; conditions: Human immunodeficiency virus 1, in Discussion
[2] = Pharmacokinetics of drug release from subdermal implants in Hu‐PBL mice (serum, HPLC); format: in vivo; conditions: end of study sera (Day 49 nanoformulations, Day 56 implants) vs EC90 in HIV cell culture
Experimental: Hu‐mice were anesthetized by i.p. injection of ketamine (80 mg/kg) and xylazine (12 mg/kg) in PBS (10 ml/kg) based on individual mouse body weight. After anesthetizing, approximately 1–2 cm square of the dorsal skin was shaved using an electric hair clipper, the area was cleaned with ethanol and disinfected with Betadine. Using a sterile disposable surgical blade, an incision of 4–5 mm was made through the skin. Gently, 2 cm × 3 cm subcutaneous pockets were created with forceps and implants loaded with Compound I and EFdA were co‐inserted at the same site. The opening was sutured using absorbable sutures followed by subcutaneous administration of 0.05 mg/kg buprenorphine. The animals were kept warm using the temperature‐controlled heating pads until they regained consciousness. Toxicity was evaluated by clinical observations, cage‐side observations (twice daily), and body weight (at least weekly). […]
The data were plotted as a concentration‐time curve using PRISM 9.0 (GraphPad Software Inc., La Jolla, CA). […] was calculated using Graph pad prism where EC50 of each compound was used along with Hill slope of 1. The predicted area under the curve (AUC) for drug concentration in blood serum against time (AUC predicted) was calculated based on the linear trapezoid method.[29] AUC was also calculated for PVLs and CD4+ T‐cells in infection experiments. […]

HIV‐1 [3] = conditions: cited from earlier work
HERG ion channel = system: HERG ion channel; parameters: method as in PMID 28167742; conditions: cited from earlier work

N#Cc1ccc2c(Oc3ccc(F)cc3OCCn3ccc(=O)[nH]c3=O)cc(F)cc2c1 [Compound I]
EC90 (HIV‐1 [1]): 10 ng/mL | EC90 (HIV‐1 [1]; from EC50 with Hill slope of 1): 25.2 nM | serum concentration fold above EC90 [2]: approximately 100 fold | synergy of Compound I with EFdA (HIV‐1 [3]; cell culture): potent synergy | activity against wild‐type HIV‐1 strains and drug resistant variants (HIV‐1 [3]; wild‐type, Y181C and K103N): active in the nanomolar range | inhibition of the HERG ion channel (HERG ion channel): no inhibition

C#C[C@]1(CO)O[C@@H](n2cnc3c(N)nc(F)nc32)C[C@@H]1O [EFdA, 4′‐ethynyl‐2‐fluoro‐2′‐deoxyadenosine, reference compound]
EC90 (HIV‐1 [1]): 5 ng/mL | EC90 (HIV‐1 [1]; from EC50 with Hill slope of 1): 17.1 nM | serum concentration fold above EC90 [2]: ~1100 fold
